Assay results: ChEMBL document CHEMBL6127116, “Discovery of Potent and Selective Blockers Targeting the Epilepsy-Associated KNa1.1 Channel” (J Med Chem, 2024); call rule not given here

Tests used:
[1] = target: Sodium channel protein type 5 subunit alpha (Homo sapiens, UniProt Q14524); assay: Inhibition of Nav1.5 (unknown origin) expressed in HEK293T cells at 10 uM by patch-clamp electrophysiology method; type: cell-based
[2] = target: T1, Voltage-gated inwardly rectifying potassium channel KCNH2 (Homo sapiens, UniProt Q12809); assay: Inhibition of human ERG expressed in Xenopus laevis oocytes at 10 uM by two-electrode voltage clamp method; type: toxicity, cell-based; settings: oocyte
T1 sequence (Q12809 whole entry): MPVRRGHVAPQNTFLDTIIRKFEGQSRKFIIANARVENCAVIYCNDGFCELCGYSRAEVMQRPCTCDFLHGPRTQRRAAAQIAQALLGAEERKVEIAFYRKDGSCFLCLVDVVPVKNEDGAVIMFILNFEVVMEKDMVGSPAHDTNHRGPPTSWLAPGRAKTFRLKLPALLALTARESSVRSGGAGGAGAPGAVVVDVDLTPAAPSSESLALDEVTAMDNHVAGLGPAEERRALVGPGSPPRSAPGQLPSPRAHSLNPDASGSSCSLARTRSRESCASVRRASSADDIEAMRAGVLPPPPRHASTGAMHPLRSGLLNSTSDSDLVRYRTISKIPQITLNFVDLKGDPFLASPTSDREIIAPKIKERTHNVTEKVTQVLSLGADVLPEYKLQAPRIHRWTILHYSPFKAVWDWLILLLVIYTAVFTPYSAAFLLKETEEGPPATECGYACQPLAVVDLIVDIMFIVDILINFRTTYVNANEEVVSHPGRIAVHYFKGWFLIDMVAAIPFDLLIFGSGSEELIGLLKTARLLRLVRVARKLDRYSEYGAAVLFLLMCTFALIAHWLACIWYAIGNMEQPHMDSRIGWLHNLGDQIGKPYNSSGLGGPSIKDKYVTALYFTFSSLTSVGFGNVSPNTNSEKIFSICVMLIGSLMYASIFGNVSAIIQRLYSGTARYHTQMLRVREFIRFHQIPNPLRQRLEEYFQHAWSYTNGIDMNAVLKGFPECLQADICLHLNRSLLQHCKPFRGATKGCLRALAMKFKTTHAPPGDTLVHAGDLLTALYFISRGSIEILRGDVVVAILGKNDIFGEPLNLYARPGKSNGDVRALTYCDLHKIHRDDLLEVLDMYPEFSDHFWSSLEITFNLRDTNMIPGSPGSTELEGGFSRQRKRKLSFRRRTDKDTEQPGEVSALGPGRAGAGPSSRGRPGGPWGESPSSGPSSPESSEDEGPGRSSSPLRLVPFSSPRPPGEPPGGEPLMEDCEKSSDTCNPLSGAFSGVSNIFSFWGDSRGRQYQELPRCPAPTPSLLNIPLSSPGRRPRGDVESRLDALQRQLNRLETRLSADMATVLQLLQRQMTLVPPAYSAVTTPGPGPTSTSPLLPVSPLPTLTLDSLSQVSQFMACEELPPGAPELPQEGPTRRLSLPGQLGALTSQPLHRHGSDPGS

[3] = Inhibition of KNa 1.1 (unknown origin); parameters: species or system Homo sapiens
[4] = target: T2, Potassium channel subfamily T member 1 (Homo sapiens, UniProt Q5JUK3); assay: Inhibition of wild type human KNa1.1 expressed in HEK293T cells by patch-clamp electrophysiology method; type: cell-based
T2 sequence (Q5JUK3 whole entry): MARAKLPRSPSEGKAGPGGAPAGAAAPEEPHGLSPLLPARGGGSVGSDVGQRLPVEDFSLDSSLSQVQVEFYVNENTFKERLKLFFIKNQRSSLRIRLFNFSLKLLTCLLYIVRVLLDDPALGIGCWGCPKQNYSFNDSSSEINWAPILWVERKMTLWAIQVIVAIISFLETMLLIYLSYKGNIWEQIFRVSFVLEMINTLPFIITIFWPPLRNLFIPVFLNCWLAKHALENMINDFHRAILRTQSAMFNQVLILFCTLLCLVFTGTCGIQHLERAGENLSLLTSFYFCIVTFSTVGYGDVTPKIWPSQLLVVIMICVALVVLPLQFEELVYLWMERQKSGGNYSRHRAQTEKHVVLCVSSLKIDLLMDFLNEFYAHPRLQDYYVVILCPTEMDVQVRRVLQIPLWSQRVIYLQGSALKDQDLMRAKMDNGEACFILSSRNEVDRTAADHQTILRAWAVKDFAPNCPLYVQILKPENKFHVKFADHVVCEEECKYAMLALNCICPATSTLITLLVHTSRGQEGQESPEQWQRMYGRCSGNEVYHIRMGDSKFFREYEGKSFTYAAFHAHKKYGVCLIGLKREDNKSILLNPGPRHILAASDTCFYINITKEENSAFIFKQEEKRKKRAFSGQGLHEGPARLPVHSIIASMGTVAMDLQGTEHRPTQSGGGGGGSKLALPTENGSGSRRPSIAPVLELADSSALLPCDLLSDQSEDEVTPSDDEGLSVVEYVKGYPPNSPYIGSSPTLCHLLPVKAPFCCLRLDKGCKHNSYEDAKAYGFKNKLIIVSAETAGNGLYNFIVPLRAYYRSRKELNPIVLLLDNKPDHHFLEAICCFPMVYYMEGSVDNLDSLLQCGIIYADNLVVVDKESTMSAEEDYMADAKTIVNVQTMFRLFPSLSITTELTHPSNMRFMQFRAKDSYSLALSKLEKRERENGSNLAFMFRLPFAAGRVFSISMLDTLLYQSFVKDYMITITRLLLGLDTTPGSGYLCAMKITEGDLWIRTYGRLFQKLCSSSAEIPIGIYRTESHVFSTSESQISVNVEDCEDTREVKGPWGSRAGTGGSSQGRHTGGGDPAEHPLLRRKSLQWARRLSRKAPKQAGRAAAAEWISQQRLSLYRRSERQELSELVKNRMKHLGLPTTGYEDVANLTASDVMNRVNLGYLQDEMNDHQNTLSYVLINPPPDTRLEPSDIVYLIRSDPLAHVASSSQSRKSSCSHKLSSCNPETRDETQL

[5] = system: HEK293; assay: Cytotoxicity against HEK293 cells assessed as reduction in cell viability at 10 uM by CCK8 method relative to control; type: toxicity, cell-based; settings: human, hek293, 10 µM
[6] = Cmax in male ICR mouse at 10 mg/kg, iv administered as single dose measured upto 24 hrs by HPLC analysis; type: ADME, organism-based; settings: in vivo
[7] = Tmax in male ICR mouse at 10 mg/kg, iv administered as single dose measured upto 24 hrs by HPLC analysis; type: ADME, organism-based; settings: in vivo
[8] = Half life in male ICR mouse at 10 mg/kg, iv administered as single dose measured upto 24 hrs by HPLC analysis; type: ADME, organism-based; settings: in vivo
[9] = AUC (0 to t) in male ICR mouse at 10 mg/kg, iv administered as single dose measured upto 24 hrs by HPLC analysis; type: ADME, organism-based; settings: in vivo
[10] = Clearance in male ICR mouse at 10 mg/kg, iv administered as single dose measured upto 24 hrs by HPLC analysis; type: ADME, organism-based; settings: in vivo
[11] = MRT (0 to t) in male ICR mouse at 10 mg/kg, iv administered as single dose measured upto 24 hrs by HPLC analysis; type: ADME, organism-based; settings: in vivo
[12] = Volume of distribution at steady state in male ICR mouse at 10 mg/kg, iv administered as single dose measured upto 24 hrs by HPLC analysis; type: ADME, organism-based; settings: in vivo, read-out: Vdss
[13] = Cmax in male ICR mouse at 50 mg/kg, po administered as single dose measured upto 24 hrs by HPLC analysis; type: ADME, organism-based; settings: in vivo
[14] = Tmax in male ICR mouse at 50 mg/kg, po administered as single dose measured upto 24 hrs by HPLC analysis; type: ADME, organism-based; settings: in vivo
[15] = Half life in male ICR mouse at 50 mg/kg, po administered as single dose measured upto 24 hrs by HPLC analysis; type: ADME, organism-based; settings: in vivo
[16] = AUC (0 to t) in male ICR mouse at 50 mg/kg, po administered as single dose measured upto 24 hrs by HPLC analysis; type: ADME, organism-based; settings: in vivo
[17] = MRT (0 to t) in male ICR mouse at 50 mg/kg, po administered as single dose measured upto 24 hrs by HPLC analysis; type: ADME, organism-based; settings: in vivo
[18] = Oral bioavailability in male ICR mouse at 50 mg/kg administered as single dose measured upto 24 hrs by HPLC analysis; type: ADME, organism-based; settings: in vivo
[19] = Drug concentration in male ICR mouse brain at 10 mg/kg, iv measured after 0.5 hrs by LC-MS/MS analysis; type: ADME, organism-based; settings: read-out: Ct
[20] = Drug concentration in male ICR mouse plasma at 10 mg/kg, iv measured after 0.5 hrs by LC-MS/MS analysis; type: ADME, organism-based
[21] = Ratio of drug concentration in male ICR mouse brain to plasma at 10 mg/kg, iv measured after 0.5 hrs by LC-MS/MS analysis; type: ADME, organism-based; settings: brain and plasma, read-out: BPR
[22] = Drug concentration in male ICR mouse brain at 10 mg/kg, iv measured after 2 hrs by LC-MS/MS analysis; type: ADME, organism-based; settings: read-out: Ct
[23] = Drug concentration in male ICR mouse plasma at 10 mg/kg, iv measured after 2 hrs by LC-MS/MS analysis; type: ADME, organism-based
[24] = Ratio of drug concentration in male ICR mouse brain to plasma at 10 mg/kg, iv measured after 2 hrs by LC-MS/MS analysis; type: ADME, organism-based; settings: brain and plasma, read-out: BPR
[25] = Drug concentration in male ICR mouse brain at 50 mg/kg, po measured after 0.5 hrs by LC-MS/MS analysis; type: ADME, organism-based; settings: read-out: Ct
[26] = Drug concentration in male ICR mouse plasma at 50 mg/kg, po measured after 0.5 hrs by LC-MS/MS analysis; type: ADME, organism-based
[27] = Ratio of drug concentration in male ICR mouse brain to plasma at 50 mg/kg, po measured after 0.5 hrs by LC-MS/MS analysis; type: ADME, organism-based; settings: brain and plasma, read-out: BPR
[28] = Drug concentration in male ICR mouse brain at 50 mg/kg, po measured after 2 hrs by LC-MS/MS analysis; type: ADME, organism-based; settings: read-out: Ct
[29] = Drug concentration in male ICR mouse plasma at 50 mg/kg, po measured after 2 hrs by LC-MS/MS analysis; type: ADME, organism-based
[30] = Ratio of drug concentration in male ICR mouse brain to plasma at 50 mg/kg, po measured after 2 hrs by LC-MS/MS analysis; type: ADME, organism-based; settings: brain and plasma, read-out: BPR
[31] = Inhibition of KNa1.1 F327I mutant (unknown origin) expressed in HEK293T cells by patch-clamp electrophysiology method; type: cell-based; settings: Homo sapiens, HEK-293T
[32] = target: T1, Voltage-gated inwardly rectifying potassium channel KCNH2; assay: Inhibition of human ERG expressed in Xenopus laevis oocytes by two-electrode voltage clamp method; type: toxicity, cell-based, Oocyte
[33] = Inhibition of human KNa1.1 Y796H mutant expressed in HEK293T cells by patch-clamp electrophysiology method; type: cell-based; settings: HEK-293T

Sodium channel protein type 5 subunit alpha, sequence (Q14524 whole entry): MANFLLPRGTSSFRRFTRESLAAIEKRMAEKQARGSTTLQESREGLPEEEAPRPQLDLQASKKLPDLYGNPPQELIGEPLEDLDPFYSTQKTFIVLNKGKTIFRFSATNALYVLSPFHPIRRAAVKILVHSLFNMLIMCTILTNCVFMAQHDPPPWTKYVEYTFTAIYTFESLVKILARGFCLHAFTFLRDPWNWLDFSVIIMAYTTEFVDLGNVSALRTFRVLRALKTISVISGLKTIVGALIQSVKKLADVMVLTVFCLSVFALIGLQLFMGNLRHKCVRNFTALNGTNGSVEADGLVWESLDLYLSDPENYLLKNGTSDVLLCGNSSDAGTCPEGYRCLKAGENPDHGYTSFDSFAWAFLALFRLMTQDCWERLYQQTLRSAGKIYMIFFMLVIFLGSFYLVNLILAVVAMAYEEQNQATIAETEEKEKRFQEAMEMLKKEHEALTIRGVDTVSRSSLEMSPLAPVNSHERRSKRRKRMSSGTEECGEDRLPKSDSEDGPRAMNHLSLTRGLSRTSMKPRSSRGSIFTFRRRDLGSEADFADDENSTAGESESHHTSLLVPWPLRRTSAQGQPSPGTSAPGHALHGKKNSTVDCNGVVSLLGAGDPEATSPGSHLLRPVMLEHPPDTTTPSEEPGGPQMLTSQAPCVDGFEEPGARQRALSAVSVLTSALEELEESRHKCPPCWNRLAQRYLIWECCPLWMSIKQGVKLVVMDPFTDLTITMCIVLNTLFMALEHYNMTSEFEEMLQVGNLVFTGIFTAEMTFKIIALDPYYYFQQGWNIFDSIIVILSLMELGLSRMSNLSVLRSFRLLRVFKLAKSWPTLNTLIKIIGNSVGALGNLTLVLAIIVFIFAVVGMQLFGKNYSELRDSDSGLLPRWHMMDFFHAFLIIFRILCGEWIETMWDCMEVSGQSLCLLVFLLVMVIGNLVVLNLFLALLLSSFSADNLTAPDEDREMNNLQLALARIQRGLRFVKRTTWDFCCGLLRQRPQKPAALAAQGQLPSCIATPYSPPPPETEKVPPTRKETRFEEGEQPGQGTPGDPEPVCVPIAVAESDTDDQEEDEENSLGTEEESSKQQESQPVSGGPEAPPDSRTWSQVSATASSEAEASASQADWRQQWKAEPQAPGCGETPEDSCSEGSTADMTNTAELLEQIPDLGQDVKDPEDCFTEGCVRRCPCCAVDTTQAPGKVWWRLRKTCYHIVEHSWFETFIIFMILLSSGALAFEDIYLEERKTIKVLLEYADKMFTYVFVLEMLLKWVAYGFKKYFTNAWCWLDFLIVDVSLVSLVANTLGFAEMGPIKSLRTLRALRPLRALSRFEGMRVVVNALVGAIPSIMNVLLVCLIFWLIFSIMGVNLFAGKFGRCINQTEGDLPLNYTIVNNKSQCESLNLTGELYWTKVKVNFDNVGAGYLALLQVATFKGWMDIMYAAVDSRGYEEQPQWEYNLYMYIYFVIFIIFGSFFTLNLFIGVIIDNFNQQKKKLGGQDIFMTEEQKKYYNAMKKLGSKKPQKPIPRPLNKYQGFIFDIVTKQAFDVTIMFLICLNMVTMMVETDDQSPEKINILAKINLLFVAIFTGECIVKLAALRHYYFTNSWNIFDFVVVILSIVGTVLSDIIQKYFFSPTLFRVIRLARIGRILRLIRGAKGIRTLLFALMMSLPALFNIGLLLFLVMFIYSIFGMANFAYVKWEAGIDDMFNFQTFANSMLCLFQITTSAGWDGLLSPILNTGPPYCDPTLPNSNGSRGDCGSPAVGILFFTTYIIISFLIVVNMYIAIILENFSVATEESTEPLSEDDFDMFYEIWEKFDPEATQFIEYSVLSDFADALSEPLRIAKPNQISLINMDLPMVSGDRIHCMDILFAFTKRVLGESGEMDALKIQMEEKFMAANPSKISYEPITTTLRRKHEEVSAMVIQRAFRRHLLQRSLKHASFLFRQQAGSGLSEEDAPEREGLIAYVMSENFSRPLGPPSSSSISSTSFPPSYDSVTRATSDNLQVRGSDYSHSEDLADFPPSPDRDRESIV

With NCCNCCCc1c(OCc2ccc(Br)cc2)ccc2ccccc12 the “inhibition (INH)” value [1] was “Not Active” and the “inhibition (INH)” value [2] was “Not Active”.
For CCOc1ccccc1S(=O)(=O)N1CC(c2nc(-c3ccsc3)no2)C1, the IC50 [3] was 2.1 µM.
Compound c1ccc(COc2ccc3ccccc3c2CCC2CCNCC2)cc1 has an IC50 [4] of 3.43 µM, an Activity [5] of 99.63% and a Cmax [6] of 2180 ng/mL. It also gave a Tmax [7] of 4.8 min, a half-life [8] of 2.46 h and an AUC(0-t) at 24 h [9] of 4550 ng·h/mL. It also gave a clearance [10] of 36.6 mL/min/kg, an MRT last at 24 h [11] of 3.12 h and a Vd [12] of 6.91 L/kg. It also gave a Cmax [13] of 1290 ng/mL, a Tmax [14] of 0.5 h and a half-life [15] of 3.11 h. For the same compound, the AUC(0-t) at 24 h [16] was 7450 ng·h/mL, the MRT last at 24 h [17] was 4.96 h and the bioavailability [18] was 32.8%. The concentration at 0.5 h [19] was 8010 ng/mL, the concentration at 0.5 h [20] was 1030 ng/mL and the Kp at 0.5 h [21] was 7.8. The concentration at 2 h [22] was 3330 ng/mL, the concentration at 2 h [23] was 605 ng/mL and the Kp at 2 h [24] was 5.51. For the same compound, the concentration at 0.5 h [25] was 604 ng/mL, the concentration at 0.5 h [26] was 1290 ng/mL and the Kp at 0.5 h [27] was 0.47. It also gave a concentration at 2 h [28] of 1200 ng/mL, a concentration at 2 h [29] of 893 ng/mL and a Kp at 2 h [30] of 1.34. The IC50 [31] was 24.2 µM, the IC50 [32] was 90.2 µM and the IC50 [33] was 0.4 µM. For the same compound, the “inhibition (INH)” value [1] was “Not Active” and the “inhibition (INH)” value [2] was “Not Active”.
